{
  "source": "patent US20110105554A1",
  "about": "“MEANS FOR TREATING MYOSIN-RELATED DISEASES” (KINARIS BIOMEDICALS GMBH, priority 2007, published 2011)",
  "key": {"[1]": {"system": "myosin-2", "format": "biochemical", "settings": "100 μM PBP", "description": "Actin-sliding motility was performed at 25° C. using an Olympus IX81 inverted fluorescence microscope. Experimental flow cells were constructed using bovine serum albumin (0.5 mg/ml in assay buffer)-coated glass slides and nitrocellulose-coated coverslips. Myosins were actin affinity-purified immediately before use, to remove rigor heads^20. Sliding movement was started by adding assay buffer containing 4 mM ATP, 10 mM DTT, 0.5 mg/ml bovine serum albumin, anti-fade solution, and 0.5% methylcellulose to the flow cell. Average sliding velocity was determined from the Gaussian distribution of automatically tracked actin filaments using DiaTrack 3.0 and Origin 7.0."}, "[2]": {"system": "heavy meromyosin (HMM) prepared from rabbit skeletal muscle myosin-2", "test": "Inhibitor screening: colorimetric high-throughput myosin ATPase assay with HMM", "format": "biochemical", "from_the_text": "Preferably, said activity is the capability of said myosin (i) to bind actin; (ii) to convert ATP into ADP and Pi; and/or (iii) to generate force and/or movement. Exemplary or preferred binding assays are described herein above and can be applied for determining whether myosin binds actin, preferably F-actin, and/or nucleotides. Exemplary or preferred activity assays are described herein below and can be applied for determining whether myosin is capable of converting ATP into ADP and Pi or of force production and generation of movement. An exemplary assay for ATPase activity is based on the detection of free phosphate formed upon cleavage of ATP, wherein the detection is effected using malachite green. For an exemplary workflow, see FIG. 17.\nFIG. 6: Histogram showing the relative myosin-2 ATPase activity measured in the absence (+control) and presence of halogenated alkaloids. Blebbistatin und BTS were used as controls. Compounds of the HET-series, BTS and blebbistatin were used at 25 μM final concentration. HET-43 is PBP (pentabromopseudilin). […]\nInhibitor screening. […] The amount of dye formed after 20 min color development at room temperature was determined with a Tecan Infinite™ microplate reader (Cralisheim, Germany)."}},
  "data": [
    {"smiles": "Oc1c(Br)cc(Br)cc1-c1[nH]c(Br)c(Br)c1Br", "note": "[KIN-43]", "values": [
      {"measurement": "fold reduction in the average gliding velocity", "setting": "[1]", "value": "2-to-3 fold"},
      {"measurement": "inhibition of HMM ATPase activity", "setting": "[2]", "value": "very potent inhibitor"}
    ]}
  ]
}
